Among the data in US20220289732A1, “HETEROCYCLIC WDR5 INHIBITORS AS ANTI-CANCER COMPOUNDS” (NOVARTIS AG, priority 2019, published 2022) are AC50 and IC50 values, retold here.

One assay relates to MV4-11 cells. The assay can be described thus: MV4-11 6-day cell growth CTG (CellTiter-Glo) assay. The class given is cell-based. The note with it: Homo sapiens, MV4-11, 144 h, 6 days, read-out: (c) MLL/WDR5 cell proliferation assay//MLL/WDR5 proliferation MV4:11 Qualified AC50. In short, it runs like this: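 IC50 comes from a dose-response fit of % inhibition relative to DMSO controls, with viable cells measured by CellTiter-Glo luminescence. Compounds were tested over 12 points (1:3, starting at 50 μM final) on MV4-11 cells plated at 300/well and grown 6 days.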
A general note: In ATP-based viability assays light output follows the ATP content of the culture.

In another assay the target is WDR5 (Homo sapiens, UniProt P61964). The assay can be described thus: WDR5 HTRF binding assay. The note with it: read-out: (a) WDR5 HTRF Pep Val v.1[Inhibitor/IC50]Qualified AC50. In short, it runs like this:
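In this HTRF displacement format, biotinylated MLL1 WIN peptide (3762-3773, 20 nM) binds WDR5 (6 nM) in 25 mM Hepes pH 7.5 with 100 mM NaCl, 2 mM DTT and 0.1% BSA for 20 min at rt. Detection used streptavidin-APC/anti-His-Eu for 1 hr. IC50 came from dose-response fits of normalized signal; 15 nM biotin-PEG-His peptide served as counter assay.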

Assay [1] addresses wild type MLL1 four-member complex (MLL1-4C) (Homo sapiens, UniProt P61964). The assay can be described thus: MLL1 LC-MS assay (SAH production). It is filed as biochemical. The note with it: read-out: (b) MLL LCMS Peptide Val.v.1 Qualified AC50. Summed up:
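SAH formation, measured by LC-MS/MS after a TFA quench containing d4-SAH, was normalised to no-compound and no-enzyme controls and fitted to a dose-response curve for IC50. Reactions ran 120 min at rt (pH 8.0 Tris buffer) with final 30 nM MLL1 four-member complex, 2.5 μM SAM and 10 μM biotinylated H3[1-21] peptide, after a 20-min enzyme/SAM-compound preincubation.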

`CCOc1cc([C@H](C)N2CCc3c(cc(CCN(C)C4CC4)cc3-c3ccc(F)nc3C)C2=O)ncc1C#N` [Example 229]: the AC50 (in the assay with MV4-11 cells; in assay [1]) was 10 to 1000 nM each time. For the same molecule, the IC50 on WDR5 is below 10 nM.
On to `CCOc1cc([C@H](C)N2CCc3c(CN(C)C)cc(Cn4ccnc4NC)cc3C2=O)cnc1C#N` [Example 32, (S)-5-(1-(5-((dimethylamino)methyl)-7-((2-(methylamino)-1H-imidazol-1-yl)methyl)-1-oxo-3,4-dihydroisoquinolin-2(1H)-yl)ethyl)-3-ethoxypicolinonitrile], for which the AC50 (in the assay with MV4-11 cells; in assay [1]) was 10 to 1000 nM throughout. For the same molecule, the IC50 at WDR5 lay in the range of 10 to 1000 nM.
Consider `CCOc1cc([C@H](C)N2CCc3c(cc(CCN(C)CC)cc3-c3c(OC)ccnc3C)C2=O)ncc1C#N` [Example 191, 4-ethoxy-6-((1S)-1-(7-(2-(ethyl(methyl)amino)ethyl)-5-(4-methoxy-2-methylpyridin-3-yl)-1-oxo-3,4-dihydroisoquinolin-2(1H)-yl)ethyl)nicotinonitrile], for which the AC50 (with MV4-11 cells; in assay [1]) was 10 to 1000 nM in each case. For the same molecule, on WDR5, the IC50 was below 10 nM.
Consider `CNc1nccn1Cc1cc(-c2cc(CO)cnc2Cl)c2ccn(Cc3cc4c(C)cccc4[nH]3)c(=O)c2c1` [Example 107, 5-(2-chloro-5-(hydroxymethyl)pyridin-3-yl)-2-((4-methyl-1H-indol-2-yl)methyl)-7-((2-(methylamino)-1H-imidazol-1-yl)methyl)isoquinolin-1(2H)-one], for which the AC50 (in the assay on MV4-11 cells; in assay [1]) was 10 to 1000 nM throughout. For the same molecule, at WDR5, the IC50 is 10 to 1000 nM.
Take `CCOc1cc([C@H](C)N2CCc3c(Cl)cc(Cn4ccnc4NC)cc3C2=O)ncc1F` [Example 5, (S)-5-chloro-2-(1-(4-ethoxy-5-fluoropyridin-2-yl)ethyl)-7-((2-(methylamino)-1H-imidazol-1-yl)methyl)-3,4-dihydroisoquinolin-1(2H)-one]: the AC50 (in the assay on MV4-11 cells; in assay [1]) was 10 to 1000 nM each time. Further, the IC50 on WDR5 was 10 to 1000 nM.
Turning to `CCOc1cc([C@H](C)N2CCc3c(cc(CCN(C)CC)cc3-c3cc(C(F)F)cnc3C)C2=O)ncc1C#N` [Example 177, (S)-6-(1-(5-(5-(difluoromethyl)-2-methylpyridin-3-yl)-7-(2-(ethyl(methyl)amino)ethyl)-1-oxo-3,4-dihydroisoquinolin-2(1H)-yl)ethyl)-4-ethoxynicotinonitrile], the AC50 (in the assay on MV4-11 cells; in assay [1]) was 10 to 1000 nM in each case. Moreover, the IC50 on WDR5 was below 10 nM.
`CCOc1cc([C@H](C)N2CCc3c(cc(CCN4C[C@@H](OC)[C@H]4C)cc3-c3ccc(F)nc3C)C2=O)ncc1C#N` [Example 244]: the AC50 (with MV4-11 cells; in assay [1]) was 10 to 1000 nM throughout. Besides, on WDR5, the IC50 lay in the range of 10 to 1000 nM.
On to `CCOc1cc([C@H](C)N2CCc3c(cc(CCN(C)CC)cc3-c3cc(C)cnc3C)C2=O)ncc1C#N` [Example 114, (S)-6-(1-(5-(2,5-dimethylpyridin-3-yl)-7-(2-(ethyl(methyl)amino)ethyl)-1-oxo-3,4-dihydroisoquinolin-2(1H)-yl)ethyl)-4-ethoxynicotinonitrile], for which the AC50 (in the assay on MV4-11 cells; in assay [1]) was 10 to 1000 nM throughout. Further, at WDR5, the IC50 was below 10 nM.
In the case of `CCOc1cc([C@H](C)N2CCc3c(CN4CC[C@@H](F)C4)cc(Cn4ccnc4NC)cc3C2=O)ncc1F` [Example 14, 2-((S)-1-(4-ethoxy-5-fluoropyridin-2-yl)ethyl)-5-(((R)-3-fluoropyrrolidin-1-yl)methyl)-7-((2-(methylamino)-1H-imidazol-1-yl)methyl)-3,4-dihydroisoquinolin-1(2H)-one], the AC50 (with MV4-11 cells; in assay [1]) was 10 to 1000 nM throughout. Moreover, on WDR5, the IC50 fell in the range of 10 to 1000 nM.
On to `CCOc1cc([C@H](C)N2CCc3c(cc(Cn4ccnc4C)cc3-c3nc(C)nn3C)C2=O)ncc1C#N` (single isomer, unassigned) [Example 264], for which the AC50 (with MV4-11 cells; in assay [1]) was 10 to 1000 nM in each case. For the same molecule, the IC50 at WDR5 was below 10 nM.
For `CCOc1cc([C@H](C)N2CCc3c(cc(Cn4ccnc4C)cc3-c3cn(C)c(=O)c(F)c3C)C2=O)ncc1F` [Example 283], the AC50 (with MV4-11 cells; in assay [1]) was 10 to 1000 nM each time. At WDR5, the IC50 was below 10 nM.
As to `CNc1nccn1Cc1cc2c(c(-c3cncnc3)c1)CCN([C@@H](C)c1cc(OC)c(F)cn1)C2=O` [Example 59, (S)-2-(1-(5-fluoro-4-methoxypyridin-2-yl)ethyl)-7-((2-(methylamino)-1H-imidazol-1-yl)methyl)-5-(pyrimidin-5-yl)-3,4-dihydroisoquinolin-1(2H)-one], the AC50 (with MV4-11 cells; in assay [1]) was 10 to 1000 nM each time. Further, at WDR5, the IC50 was 10 to 1000 nM.
Regarding `CNc1nccn1Cc1cc2c(c(-c3cn(C)nc3C(F)(F)F)c1)CCN(Cc1ccc(F)c(OC)c1)C2=O` [Example 54, 2-(4-fluoro-3-methoxybenzyl)-5-(1-methyl-3-(trifluoromethyl)-1H-pyrazol-4-yl)-7-((2-(methylamino)-1H-imidazol-1-yl)methyl)-3,4-dihydroisoquinolin-1(2H)-one], the AC50 (in the assay on MV4-11 cells; in assay [1]) was 10 to 1000 nM throughout. Besides, the IC50 on WDR5 lay within 10 to 1000 nM.
On to `CCOc1cc([C@H](C)N2CCc3c(cc(CCN(C)CCO)cc3-c3ccc(F)nc3C)C2=O)ncc1C#N` [Example 252], for which the AC50 (in the assay with MV4-11 cells; in assay [1]) was 10 to 1000 nM in each case. The IC50 on WDR5 is 10 to 1000 nM.
Take `CCOc1cc(CN2CCc3c(cc(CCN4CC[C@H]4C)cc3-c3ccc(F)nc3C)C2=O)ncc1C#N` [Example 245]: the AC50 (with MV4-11 cells; in assay [1]) was 10 to 1000 nM in each case. The IC50 on WDR5 was in the range of 10 to 1000 nM.
For the molecule `CNc1nccn1Cc1cc(CN2CC[C@H](F)C2)c2c(c1)C(=O)N([C@@H](C)c1cc(OC)c(F)cn1)CC2` [Example 44, 2-((S)-1-(5-fluoro-4-methoxypyridin-2-yl)ethyl)-5-(((S)-3-fluoropyrrolidin-1-yl)methyl)-7-((2-(methylamino)-1H-imidazol-1-yl)methyl)-3,4-dihydroisoquinolin-1(2H)-one], the AC50 (in the assay on MV4-11 cells; in assay [1]) was 10 to 1000 nM in each case. Also, on WDR5, the IC50 lay within 10 to 1000 nM.
Consider `CCOc1cc([C@H](C)N2CCc3c(cc(CCN(C)CC)cc3-c3cn(C)nc3C(F)F)C2=O)ncc1C#N` [Example 126, (S)-6-(1-(5-(3-(difluoromethyl)-1-methyl-1H-pyrazol-4-yl)-7-(2-(ethyl(methyl)amino)ethyl)-1-oxo-3,4-dihydroisoquinolin-2(1H)-yl)ethyl)-4-ethoxynicotinonitrile], for which the AC50 (in the assay with MV4-11 cells; in assay [1]) was 10 to 1000 nM in each case. Further, the IC50 at WDR5 was below 10 nM.
Consider `CCOc1cc([C@@H](C)N2CCc3c(cc(CCN(C)CC)cc3-c3cc(C)cnc3C)C2=O)ncc1C#N` [Example 156, (R)-6-(1-(5-(2,5-dimethylpyridin-3-yl)-7-(2-(ethyl(methyl)amino)ethyl)-1-oxo-3,4-dihydroisoquinolin-2(1H)-yl)ethyl)-4-ethoxynicotinonitrile], for which the AC50 in the assay with MV4-11 cells was 1000 to 25000 nM; in assay [1], 10 to 1000 nM. For the same molecule, the IC50 on WDR5 is 10 to 1000 nM.
Consider `CNc1nccn1Cc1cc(CN2CC(F)(F)C2)c2c(c1)C(=O)N(Cc1cc(OC)c(F)cn1)CC2` [Example 38, 5-((3,3-difluoroazetidin-1-yl)methyl)-2-((5-fluoro-4-methoxypyridin-2-yl)methyl)-7-((2-(methylamino)-1H-imidazol-1-yl)methyl)-3,4-dihydroisoquinolin-1(2H)-one], for which the AC50 (in the assay with MV4-11 cells; in assay [1]) was 10 to 1000 nM each time. Moreover, on WDR5, the IC50 is 10 to 1000 nM.
As to `CCOc1cc([C@H](C)N2CCc3c(cc(CCN(C)CC)cc3-c3cn(C)c(=O)c(Cl)c3C)C2=O)ncc1C#N` [Example 170, (S)-6-(1-(5-(5-chloro-1,4-dimethyl-6-oxo-1,6-dihydropyridin-3-yl)-7-(2-(ethyl(methyl)amino)ethyl)-1-oxo-3,4-dihydroisoquinolin-2(1H)-yl)ethyl)-4-ethoxynicotinonitrile], the AC50 (with MV4-11 cells; in assay [1]) was 10 to 1000 nM in each case. The IC50 at WDR5 was below 10 nM.
Take `CCOc1cc(CN2CCc3ccc(Cn4ccnc4NC)cc3C2=O)cnc1C#N` [Example 96, 3-ethoxy-5-((7-((2-(methylamino)-1H-imidazol-1-yl)methyl)-1-oxo-3,4-dihydroisoquinolin-2(1H)-yl)methyl)picolinonitrile]: the AC50 (in the assay with MV4-11 cells; in assay [1]) was 10 to 1000 nM in each case. Also, the IC50 on WDR5 was 10 to 1000 nM.
As to `CNc1nccn1Cc1cc(-c2cc(CO)cnc2Cl)c2ccn(Cc3ccc(F)c(OC)c3)c(=O)c2c1` [Example 101, 5-(2-chloro-5-(hydroxymethyl)pyridin-3-yl)-2-(4-fluoro-3-methoxybenzyl)-7-((2-(methylamino)-1H-imidazol-1-yl)methyl)isoquinolin-1(2H)-one], the AC50 (in the assay on MV4-11 cells; in assay [1]) was 10 to 1000 nM throughout. For the same molecule, the IC50 on WDR5 fell in the range of 10 to 1000 nM.
